Laboratory results: patent publication US20060035901A1, “Methotrexate derivatives useful for treating cancer and arthritis” (Serenex, Inc., priority 2004, published 2006)

Tests used:
[1] = system: HT29 (colon; adenocarcinoma, GRIII); experiment: Cell proliferation assay (WST-1), HT29; assay type: cell-based; conditions: HT29 cells
Description: (§1) A panel of cancer cell lines was obtained from the DCTP Tumor Repository, National Cancer Institute (Fredrick, Md.) or ATCC (Rockville, Md.). Cell cultures were maintained in Hyclone RPMI 1640 medium (Logan, Utah) supplemented with 10% fetal bovine serum and 20 mM HEPES buffer, pH 7.2, at 37° C., 5% CO2 atmosphere. Cultures were maintained at sub-confluent densities.
(§2) For proliferation assays, cells were seeded with the appropriate medium into 96 well plates at 1,000-2,000 cells per well, depending on cell line, and were incubated overnight. The following day, an amount of test compound, DMSO solution (negative control), or Actinomycin D (positive control) was added to the appropriate wells as 10× concentrated stocks prepared in phosphate buffered saline. The cell plates were then incubated for an additional 2-5 days, dependent on cell line, to allow for proliferation to occur. […] Optical density was determined for each well a 450 nm using a Tecan GniosPro plate reader (RTP, NC). The percentage of cell growth was then determined by comparing the cell growth in the presence of test compounds to the DMSO vehicle control treated cells (100% growth) and […] Actinomycin D treated cells (0% growth).

[2] = system: NCI/ADR Res (breast; adenocarcinoma); experiment: Cell proliferation assay (WST-1), NCI/ADR Res; assay type: cell-based; conditions: NCI/ADR Res cells
Description: as §1, §2

[3] = system: SF-268 (central nervous system; anaplastic astrocytoma); experiment: Cell proliferation assay (WST-1), SF-268; assay type: cell-based; conditions: SF-268 cells
Description: as §1, §2

[4] = system: T47D (mammary; carcinoma); experiment: Cell proliferation assay (WST-1), T47D; assay type: cell-based; conditions: T47D cells
Description: as §1, §2

[5] = system: PC-3 (N/A; carcinoma); experiment: Cell proliferation assay (WST-1), PC-3; assay type: cell-based; conditions: PC-3 cells
Description: as §1, §2

[6] = system: SkBr (breast cancer); experiment: Cell proliferation assay (WST-1), SkBr; assay type: cell-based; conditions: SkBr cells
Description: as §1, §2

[7] = system: OVCAR8 (ovarian; adenocarcinoma); experiment: Cell proliferation assay (WST-1), OVCAR8; assay type: cell-based; conditions: OVCAR8 cells
Description: as §1, §2

[8] = system: NCI-H460 (lung; large cell carcinoma); experiment: Cell proliferation assay (WST-1, Cyquant DNA), NCI-H460; assay type: cell-based; conditions: NCI-H460 cells
Description: as §1
as §2, with “saline.” for “saline. The cell plates were then incubated for an additional 2-5 days, dependent on cell line, to allow for proliferation to occur.”
(§3) Immediately after the WST-1 determination, the medium was removed from the NCI-H460 and HUVEC cell lines, and the plates stored at −80° C. Using these assay plates, relative DNA amounts in each well were determined using the Cyquant DNA assay kit from […] (Eugene, Oreg.) following the manufacturer's directions. […]

[9] = molecular target: EGFR (Homo sapiens, UniProt P00533); experiment: Elution of EGFR from ATP-Sepharose column by compound (Proteome Mining), IC50 estimate; assay type: binding; conditions: estimated from percent of protein eluted from ATP-Sepharose column, gel densitometry; read-out: Approximate IC50 for EGFR
Description: A proteome containing a known quantity of Her2, EGFR, and B-Raf was run over an ATP-Sepharose™ column in order to bind all purine-binding proteins. See, WO 00/63694 and U.S. Provisional Application No. 60/453,697 filed Jan. 22, 2003, each of which is incorporated by reference in its entirety. The ATP-Sepharose™ was washed several times, and then eluted with the compound of Formula III. The experiment was run in duplicate at concentrations of 20 μM, 100 μM, and 500 μM of the compound of Formula III. The eluted fractions were run on a 1-dimensional SDS polyacrylamide gel. Gels were stained with a fluorescent stain such as sypro ruby (a highly sensitive fluorescent protein stain that can readily detect less than 1 fmol of total protein, i.e., less than 0.04 ng for a 40 kDa protein). The gels were imaged using a standard flat bed gel imager and the amount of protein estimated by densiometry. The percent of protein eluted from the column at each concentration was determined and IC50 values were calculated from these estimates. Where necessary, the eluted proteins were cut out of the gel, and identified using mass spectral techniques.
These steps were repeated with each of the compounds of Formulas IV-X, MTX, and the c series derivative.

[10] = system: OVCAR-3 (ovarian; adenocarcinoma); experiment: Cell proliferation assay (WST-1), OVCAR-3; assay type: cell-based; conditions: OVCAR-3 cells
Description: as §1, §2

[11] = system: DMS-114 (N/A; small cell); experiment: Cell proliferation assay (WST-1), DMS-114; assay type: cell-based; conditions: DMS-114 cells
Description: as §1, §2

[12] = system: Human umbilical vein endothelial cells (HUVEC); experiment: Cell proliferation assay (WST-1, Cyquant DNA), HUVEC; assay type: cell-based
Description: Human umbilical vein endothelial cells (HUVEC) were purchased from Clonetics, a division of Cabrex (Walkersville, Md.). Cultures were established from cryopreserved stocks using Clonetics EGM-2 medium supplemented with 20 mM HEPES, pH 7.2, at 37° C., 5% CO2 atmosphere.
as §2, with “saline.” for “saline. The cell plates were then incubated for an additional 2-5 days, dependent on cell line, to allow for proliferation to occur.”
as §3

[13] = system: SR (lymphoma, pleural effusion); experiment: Cell proliferation assay (WST-1), SR; assay type: cell-based; conditions: SR cells
Description: as §1, §2

[14] = system: BT474 (breast cancer); experiment: Cell proliferation assay (WST-1), BT474; assay type: cell-based; conditions: BT474 cells
Description: as §1, §2

[15] = system: Lncap (prostate; carcinoma); experiment: Cell proliferation assay (WST-1), Lncap; assay type: cell-based; conditions: Lncap cells
Description: as §1, §2

[16] = system: SK-Mel 5 (skin; melanoma); experiment: Cell proliferation assay (WST-1), SK-Mel 5; assay type: cell-based; conditions: SK-Mel 5 cells
Description: as §1, §2

[17] = system: MCF-7 (mammary; adenocarcinoma); experiment: Cell proliferation assay (WST-1), MCF-7; assay type: cell-based; conditions: MCF-7 cells
Description: as §1, §2

Sequence of EGFR (P00533 25-1210, species assumed): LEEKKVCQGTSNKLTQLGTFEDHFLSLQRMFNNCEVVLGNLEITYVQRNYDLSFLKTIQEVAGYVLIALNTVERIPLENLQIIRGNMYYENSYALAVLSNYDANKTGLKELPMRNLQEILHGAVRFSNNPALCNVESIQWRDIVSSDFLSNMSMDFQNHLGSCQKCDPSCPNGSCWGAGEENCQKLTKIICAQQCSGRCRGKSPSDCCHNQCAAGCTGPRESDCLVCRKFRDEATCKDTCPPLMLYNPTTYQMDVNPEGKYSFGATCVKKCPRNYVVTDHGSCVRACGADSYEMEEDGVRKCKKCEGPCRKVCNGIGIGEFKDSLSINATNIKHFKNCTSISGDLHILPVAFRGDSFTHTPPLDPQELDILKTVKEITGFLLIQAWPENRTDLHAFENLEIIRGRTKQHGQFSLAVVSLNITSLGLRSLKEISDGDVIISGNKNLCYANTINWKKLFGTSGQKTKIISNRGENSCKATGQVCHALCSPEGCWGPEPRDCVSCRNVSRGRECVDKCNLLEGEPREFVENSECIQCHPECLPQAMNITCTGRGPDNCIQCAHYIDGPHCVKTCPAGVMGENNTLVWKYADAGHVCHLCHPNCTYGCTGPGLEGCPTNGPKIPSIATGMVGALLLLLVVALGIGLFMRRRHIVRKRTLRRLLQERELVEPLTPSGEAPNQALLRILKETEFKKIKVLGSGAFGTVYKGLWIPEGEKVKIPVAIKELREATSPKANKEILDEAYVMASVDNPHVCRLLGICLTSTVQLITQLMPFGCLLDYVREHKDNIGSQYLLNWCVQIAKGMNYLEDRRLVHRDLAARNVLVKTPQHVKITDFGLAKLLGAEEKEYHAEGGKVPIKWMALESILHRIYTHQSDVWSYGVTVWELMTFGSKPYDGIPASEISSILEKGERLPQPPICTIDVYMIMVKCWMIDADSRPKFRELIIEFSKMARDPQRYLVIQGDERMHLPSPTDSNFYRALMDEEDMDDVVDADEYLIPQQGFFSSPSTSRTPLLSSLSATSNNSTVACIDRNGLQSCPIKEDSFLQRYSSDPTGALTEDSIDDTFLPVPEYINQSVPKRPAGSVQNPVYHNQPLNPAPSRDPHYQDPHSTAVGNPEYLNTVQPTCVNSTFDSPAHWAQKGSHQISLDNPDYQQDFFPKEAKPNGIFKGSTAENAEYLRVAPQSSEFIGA

- Fold Improvement in Cell Proliferation IC50 Compared to MTX [1]: >6 fold
- Fold Improvement in Cell Proliferation IC50 Compared to MTX [2]: >1 fold
- Fold Improvement in Cell Proliferation IC50 Compared to MTX [3]: >4 fold
- Fold Improvement in Cell Proliferation IC50 Compared to MTX [4]: 3 fold
- Fold Improvement in Cell Proliferation IC50 Compared to MTX [5]: >1 fold
- Fold Improvement in Cell Proliferation IC50 Compared to MTX [6]: >2 fold
- Fold Improvement in Cell Proliferation IC50 Compared to MTX [7]: >2 fold
- Fold Improvement in Cell Proliferation IC50 Compared to MTX [8]: >1 fold
- IC50 [9]: 5 µM
- Fold Improvement in Cell Proliferation IC50 Compared to MTX [10]: >3 fold
- Fold Improvement in Cell Proliferation IC50 Compared to MTX [13]: >4 fold
- Fold Improvement in Cell Proliferation IC50 Compared to MTX [14]: >5 fold
- Fold Improvement in Cell Proliferation IC50 Compared to MTX [15]: 7 fold
- Fold Improvement in Cell Proliferation IC50 Compared to MTX [16]: >4 fold
- Fold Improvement in Cell Proliferation IC50 Compared to MTX [17]: >1 fold
Structure (SMILES): C#CCN(Cc1cnc2nc(N)nc(N)c2n1)c1ccc(C(=O)NC(CCC(=O)O)C(=O)O)cc1C (centres unmarked) [Formula III, 2-{4-[(2,4-diamino-pteridin-6-ylmethyl)-prop-2-ynyl-amino]-3-methyl-benzoylamino}-pentanedioic acid]
- Fold Improvement in Cell Proliferation IC50 Compared to MTX [11]: >4 fold
- Fold Improvement in Cell Proliferation IC50 Compared to MTX [12]: >2 fold
